According to patent publication US20090247499A1, “SULFONYLATED PIPERAZINES AS CANNABINOID-1 RECEPTOR MODULATORS” (priority 2006, published 2009):
Read-outs that look alike come from different tables or passages of the source.

What was measured:
[1] = biological target: T1, recombinant human CB1 receptor expressed in CHO cells (Homo sapiens, UniProt P21554); assay: Cannabinoid Receptor-1 (CB1) Functional Activity Assay (cAMP); type: cell-based
T1 construct: expressed in transfected cells; CB1-CHO cell suspension for cAMP
T1 sequence (P21554 whole entry): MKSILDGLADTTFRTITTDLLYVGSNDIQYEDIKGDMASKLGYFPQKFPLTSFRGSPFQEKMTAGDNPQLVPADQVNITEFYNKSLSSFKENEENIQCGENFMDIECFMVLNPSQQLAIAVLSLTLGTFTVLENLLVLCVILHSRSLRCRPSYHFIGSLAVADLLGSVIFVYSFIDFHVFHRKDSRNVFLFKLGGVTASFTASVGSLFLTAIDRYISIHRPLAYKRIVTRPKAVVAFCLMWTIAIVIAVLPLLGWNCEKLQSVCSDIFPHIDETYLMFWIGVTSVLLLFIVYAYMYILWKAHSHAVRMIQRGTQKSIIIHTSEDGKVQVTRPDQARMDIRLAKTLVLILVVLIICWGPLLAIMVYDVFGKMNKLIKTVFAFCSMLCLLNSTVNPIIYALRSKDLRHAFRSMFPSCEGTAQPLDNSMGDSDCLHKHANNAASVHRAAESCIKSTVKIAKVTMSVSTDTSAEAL
Protocol: The functional activation of CB1 receptor is based on recombinant human CBI receptor expressed in CHO cells (Felder et al, Mol. Pharmacol. 48: 443-450, 1995). To determine the agonist activity or inverse agonist activity of any test compound, 50 ul of CB1-CHO cell suspension are mixed with test compound and 70 ul assay buffer containing 0.34 mM 3-isobutyl-1-methylxanthine and 5.1 uM of forskolin in 96-well plates. The assay buffer is comprised of Earle's Balanced Salt Solution supplemented with 5 mM MgCl2, 1 mM glutamine, 10 mM HEPES, and 1 mg/mL bovine serum albumin. The mixture is incubated at room temperature for 30 minutes, and terminated by adding 30 μl/well of 0.5M HCl. The total intracellular cAMP level is quantitated using the New England Nuclear Flashplate and cAMP radioimmunoassay kit.

[2] = biological target: T2, recombinant human CB1 receptor (Homo sapiens, UniProt P21554); assay: Cannabinoid Receptor-1 (CB1) Binding Assay
T2 construct: expressed in transfected cells; CB1-CHO cell suspension for cAMP
T2 sequence (P21554 whole entry): as above
Protocol: Binding affinity determination is based on recombinant human CB1 receptor expressed in Chinese Hamster Ovary (CHO) cells (Felder et al, Mol. Pharmacol. 48: 443-450, 1995). Total assay volume is 250 μl (240 μl CB1 receptor membrane solution plus 5 μl test compound solution plus 5 μl [3H]CP-55940 solution). Final concentration of [3H]CP-55940 is 0.6 nM. Binding buffer contains 50 mM Tris-HCl, pH7.4, 2.5 mM EDTA, 5 mM MgCl2, 0.5 mg/mL fatty acid free bovine serum albumin and protease inhibitors (Cat#P8340, from Sigma). To initiate the binding reaction, 5 μl of radioligand solution is added, the mixture is incubated with gentle shaking on a shaker for 1.5 h at 30° C. The binding is terminated by using 96-well harvester and filtering through GF/C filter presoaked in 0.05% polyethylenimine. The bound radiolabel is quantitated using scintillation counter. Apparent binding affinities for various compounds are calculated from IC50 values (DeBlasi et al., Trends Pharmacol Sci 10: 227-229, 1989).

[3] = CB1-CHO cells, forskolin, intracellular cAMP, read-out: CB1 function activity EC50
[4] = recombinant human CB1 receptor in CHO cells, [3H]CP-55940 0.6 nM, read-out: CB1 binding IC50

EC50 [1, 3] [nM] | IC50 [2, 4] [nM] | SMILES | EC50 [1] [nM] | IC50 [2] [nM]
10.5 | 3790 | O=C(N1CCCCC1)N1CCN(S(=O)(=O)c2cccc3ccccc23)CC1 [Example 83, 4-(piperidin-1-yl-carbonyl)-1-(1-naphthylsulfonyl) piperazine] |  | 
37.7 | 3220 | O=C(c1ccccc1)N1CCN(S(=O)(=O)c2cc(C(F)(F)F)cc(C(F)(F)F)c2)CC1 [Example 89, 4-benzoyl-1-((3,5-bis(trifluoromethyl)phenyl)sulfonyl)piperazine] |  | 
0.7 | 6.07 | COC(=O)c1cc(C(F)(F)F)cc(S(=O)(=O)N2CCN(C(=O)Cc3ccc(C(F)(F)F)cc3)CC2)c1 [Example 125, 4-(4-trifluoromethylphenyl-acetyl)-1-((3-methoxycarbonyl-5-trifluoromethyl-phenyl)sulfonyl)piperazine] |  | 
1.1 | 303 | O=C(CC1CC1)N1CCN(S(=O)(=O)c2cccc3ccccc23)CC1 [Example 17, 4-(cyclopropyl-acetyl)-1-(1-naphthylsulfonyl)piperazine] |  | 

The next lines start with the compound.

SMILES | EC50 [1, 3] [nM] | IC50 [2, 4] [nM] | EC50 [1] [nM] | IC50 [2] [nM]
O=C(C1CCCCC1)N1C2CCC1CN(S(=O)(=O)c1cccc3ccccc13)C2 [Example 114, 8-(cyclohexylcarbonyl)-3-(1-naphthylsulfonyl)-3,8-diazabicyclo[3.2.1]octane] |  |  | 15.1 | 3190
O=C(Cc1ccc(C(F)(F)F)cc1)N1CCN(S(=O)(=O)c2cc(C3CC3)cc(C(F)(F)F)c2)CC1 [Example 123, 4-(4-trifluoromethylphenyl-acetyl)-1-((3-cyclopropyl-5-trifluoromethyl-phenyl)sulfonyl)piperazine] | 1.09 |  |  | 1.24
O=C(C1CCCCC1)N1CCN(S(=O)(=O)c2cc(C(F)(F)F)cc(C(F)(F)F)c2)CC1 [Example 132, 4-(cyclohexyl-carbonyl)-1-((3,5-bis(trifluoromethyl)phenyl)sulfonyl)piperazine] |  | 260 | 1.07 | 
O=C(C1CCCCC1)N1CCN(S(=O)(=O)c2cc(Cl)cc(Cl)c2)CC1 [Example 101, 4-(cyclohexyl-carbonyl)-1-((3,5-dichlorophenyl)sulfonyl)piperazine] | 0.41 | 422 |  | 
